Source: patent US20160045612A1, “FUNCTIONALIZED NANOPARTICLES FOR MEDICAL TREATMENTS” (UNIVERSITY OF MASSACHUSETTS, priority 2013, published 2016)
Structures can show the parent of a compound that is named as a salt.

Test system: engineered Str^r mutant E. coli ORN 208
Experiment: minimal inhibitory concentration (MIC) against streptomycin-resistant E. coli
Assay type: cell-based, Escherichia coli
Method: The diverse particle size affects inhibition and control. Silica nanoparticles were synthesized with an average of 80, 50 and 30 nm. Streptomycin was conjugated via photocoupling method through perfluorophenyl azide (PFPA) chemistry. The MIC for free streptomycin sulfate was recorded as a high 2.0 mg/mL for an engineered Str^r mutant E. coli ORN 208.
It is reasonable to hypothesize that the more nanoparticles internalize into the bacteria the greater the effect of the antibiotic. […] The comparative difference of the streptomycin that can exert MIC is shown in FIG. 9 for the engineered Str^r mutant E. coli ORN 208 .

Question: What does the source list for `[H]/N=C(/N)N[C@H]1[C@H](O)[C@@H](O)[C@H](O[C@@H]2O[C@@H](C)[C@](O)(C=O)[C@H]2O[C@@H]2O[C@@H](CO)[C@H](O)[C@@H](O)[C@@H]2NC)[C@@H](N/C(N)=N\[H])[C@@H]1O` [free streptomycin sulfate, Streptomycin sulfate]?
Answer: MIC (Escherichia coli, read-out: minimum inhibitory concentration (MIC)): 2000 µg/mL; minimum inhibitory concentration (MIC) (streptomycin resistant E. coli, MIC as streptomycin): 2000 µg/mL
